Patent US20220402925A1, “COMPOUNDS AND METHODS FOR THE TREATMENT OF CYSTIC FIBROSIS” (Flatley Discovery Lab, LLC, priority 2019, published 2022)

molecular target: T1, F508del CFTR (Homo sapiens, UniProt P13569, DEL508-508); assay: Equivalent current assay in primary CF airway epithelial cells (Corrector Activity, NAUC normalized to 3 μM VX809); assay type: cell-based; conditions: NAUC as % of positive control (VX-809)
T1 construct: Primary CF airway epithelial cells were obtained from the UNC Cystic Fibrosis Tissue Procurement and Cell Culture Core; host or cells: primary CF airway epithelial cells
T1 sequence (P13569 with tags, fused parts or gaps DEL508-508): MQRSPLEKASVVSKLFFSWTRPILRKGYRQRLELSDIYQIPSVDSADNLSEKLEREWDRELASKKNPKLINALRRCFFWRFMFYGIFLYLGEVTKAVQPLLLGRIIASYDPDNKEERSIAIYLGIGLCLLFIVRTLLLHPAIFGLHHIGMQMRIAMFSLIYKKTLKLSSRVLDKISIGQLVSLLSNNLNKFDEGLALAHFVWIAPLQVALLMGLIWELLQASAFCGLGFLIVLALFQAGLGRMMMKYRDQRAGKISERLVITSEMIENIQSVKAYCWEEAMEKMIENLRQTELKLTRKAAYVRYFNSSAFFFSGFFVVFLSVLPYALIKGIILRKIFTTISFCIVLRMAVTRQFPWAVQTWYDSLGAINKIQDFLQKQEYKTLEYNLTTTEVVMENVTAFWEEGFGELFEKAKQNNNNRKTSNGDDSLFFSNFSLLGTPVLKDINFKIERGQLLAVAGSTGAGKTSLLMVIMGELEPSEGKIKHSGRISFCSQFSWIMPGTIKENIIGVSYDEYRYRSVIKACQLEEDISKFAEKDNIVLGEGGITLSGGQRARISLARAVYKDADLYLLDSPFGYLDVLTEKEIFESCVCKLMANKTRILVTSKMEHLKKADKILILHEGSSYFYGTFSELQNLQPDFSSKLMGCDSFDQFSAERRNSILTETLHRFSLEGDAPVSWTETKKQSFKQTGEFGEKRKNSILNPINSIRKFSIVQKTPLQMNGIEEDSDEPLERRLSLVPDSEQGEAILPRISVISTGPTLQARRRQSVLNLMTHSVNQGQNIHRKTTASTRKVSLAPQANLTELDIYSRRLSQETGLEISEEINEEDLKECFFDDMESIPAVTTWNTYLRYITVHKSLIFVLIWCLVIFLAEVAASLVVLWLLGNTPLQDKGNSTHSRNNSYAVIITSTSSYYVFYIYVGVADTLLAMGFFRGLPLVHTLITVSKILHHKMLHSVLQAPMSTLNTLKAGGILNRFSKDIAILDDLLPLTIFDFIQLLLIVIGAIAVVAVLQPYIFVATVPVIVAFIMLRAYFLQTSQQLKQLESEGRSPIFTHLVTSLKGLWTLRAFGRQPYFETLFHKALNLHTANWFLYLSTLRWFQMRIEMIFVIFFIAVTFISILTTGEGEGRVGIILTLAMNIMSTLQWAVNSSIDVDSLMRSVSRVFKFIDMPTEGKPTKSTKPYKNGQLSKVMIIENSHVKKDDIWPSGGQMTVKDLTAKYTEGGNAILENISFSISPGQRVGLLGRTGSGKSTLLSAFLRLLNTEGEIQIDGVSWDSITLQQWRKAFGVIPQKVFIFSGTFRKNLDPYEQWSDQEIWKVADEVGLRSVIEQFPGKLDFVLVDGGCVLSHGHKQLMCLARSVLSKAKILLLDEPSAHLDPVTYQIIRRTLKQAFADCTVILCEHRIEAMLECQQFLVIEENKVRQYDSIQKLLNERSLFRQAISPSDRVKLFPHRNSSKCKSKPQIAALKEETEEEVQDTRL
Procedure: Primary CF airway epithelial cells were obtained from the UNC Cystic Fibrosis Tissue Procurement and Cell Culture Core. The cells are grown at 37° C. in a Heracell 150i incubator using growth media (BEGM, Fischer). Cells were then transferred to differentiation media (airway liquid interface media (ALI) media; Lechner J F and LaVeck M A, J. Tissue Culture Methods 1985, 9: 43-48) for a minimum of 4 weeks on coated Costar transwells. Two days before the assay the mucus on the apical surface of the cells was aspirated after incubating with 200 μL of differentiation media for at least thirty (30) minutes. One day before the assay test compounds were added to the basolateral surface of the cells at various test concentrations dissolved in DMSO. Duplicate wells were prepared giving a n=4 or n=6 protocol.
Cells were treated for 24 hours with various combinations and concentrations of the test articles, reference standard (3 μM VX809, positive control). Compounds stock solutions were prepared in DMSO and diluted 1/1000 into ALI media to their final assay concentration. Cells were treated with combination solutions (2 mL of each dilution) and incubated at 37° C. for 24 h.
For the equivalent current assay, cells on six Transwell (24-well) plates were treated. Each Transwell plate was filled with 200 μl of HBS on the apical surface and 2 ml on the basolateral surface. Plates were placed horizontally in a heated mount at 37° C. and equilibrated for 30 minutes. Resting current was measured for 15 min and then blocked by the apical addition of 5 μM benzamil. After 20 min, CFTR activator (10 μM forskolin) and potentiator (either 1 μM VX-770 or 3 μM FDL176) were added to both the apical and basolateral side to stimulate CFTR. An increase in chloride current is seen as an upward deflection of the trace. After another 60 min, CFTR-172 (a CFTR inhibitor, 20 μM) and/or bumetanide (20 uM) was added to block CFTR mediated chloride current.
The raw data, voltage vs. time and resistance vs. time for the equivalent current assay (sampling interval: 6 minutes) were transferred to Excel (Microsoft Office Professional, version 14.0.7106.5003) for analysis. CFTR specific current was computed from I=V/R (Ohms Law), the average amplitude of the increase in current elicited upon addition forskolin and ending upon addition of the CFTR channel specific blocker CFTR-172. This average is equivalent to the sum of the average forskolin activated and the average VX770-potentiated currents. The average current measured in vehicle (0.1% DMSO) treated cells, IV, was subtracted from the current for the test article, ITA, or from the corrector reference standard VX809 (3 uM, ISTD). For replicate measurements, the averaged vehicle subtracted response for the test article, was normalized to the averaged vehicle subtracted response of the reference corrector VX809 (3 μM).
INSC=(ITA−IV)(ave)/(ISTD−IV)(ave) (Equation 1)
A second endpoint, for the equivalent current assay, evaluated was NAUC, the normalized area under the curve (AUC) measuring the response after addition of forskolin and potentiator to the time point right before the addition of the CFTR inhibitor. The AUC is effectively the average response multiplied by the duration of the response. The AUC of the test article, AUCTA was then corrected by subtracting the average vehicle response, AUCV,ave over the same time range, and normalized as for the inhibitor-sensitive current to the difference of the corrector reference standard VX809 (3 μM VX809r,ave and the vehicle response:
NAUCTA=[AUCTA−AUCV,ave]/[AUCVx809r,ave−AUCV,ave] (Equation 2).
The normalized value for DMSO is 0.0 and for VX-809 alone is 1.0 for both of these equations.
Experiments were run with a minimum of n=4 replicates per concentration. Since the distribution for the ratio of two normal distributions is a Cauchy distribution, the median value must be used for the average and the average deviation must be used for the error of all normalized data. […]

| Structure (SMILES) | Corr Activity (NAUC) |
| --- | --- |
| CCN(C(=O)Cn1nc(-c2cc(Cl)cc(C#N)c2)c2[nH]cnc2c1=O)c1ccc2c(c1)OC(F)(F)O2 [Example 244] | +++ (NAUC>70% of positive control) |
| O=C(Cn1nc(-c2cc(O)cc(OC(F)(F)F)c2)c2[nH]cnc2c1=O)N(c1ccc2c(c1)OC(F)(F)O2)C1CC1 [Example 407] | + (NAUC<40% of positive control) |
| CCN(C(=O)Cn1nc(-c2ccc(C(=O)NCc3ccccc3)c(Cl)c2)c2[nH]cnc2c1=O)c1ccc2c(c1)OC(F)(F)O2 [Example 330] | + (NAUC<40% of positive control) |
| CCN(C(=O)Cn1nc(-c2cc(C#N)cc(OC)c2)c2oc(C(F)F)cc2c1=O)c1ccc2c(c1)OC(F)(F)O2 [Example 190] | +++ (NAUC>70% of positive control) |
| CCN(C(=O)Cn1nc(-c2cccc(F)c2)c2occc2c1=O)c1ccc2c(c1F)OC(F)(F)O2 [Example 109] | +++ (NAUC>70% of positive control) |
| COc1ccc(-c2nn(CC(=O)N(c3ccc4c(c3)OC(F)(F)O4)C3CC3)c(=O)c3nc[nH]c23)cc1C#N [Example 464] | +++ (NAUC>70% of positive control) |
| CN(C(=O)Cn1nc(-c2cccc(C#N)c2)c2oc(C3CCC3)cc2c1=O)c1ccc2c(c1)OC(F)(F)O2 [Example 233] | ++ (NAUC 70-40% of positive control) |
| O=C(Cn1nc(-c2cc(F)cc(F)c2)c2[nH]cnc2c1=O)N(c1ccc2c(c1)OC(F)(F)O2)C1CC1 [Example 380] | ++ (NAUC 70-40% of positive control) |
| CCN(C(=O)Cn1nc(-c2cc(F)cc(Cl)c2)c2oc(C)cc2c1=O)c1ccc2c(c1)OC(F)(F)O2 [Example 75] | +++ (NAUC>70% of positive control) |
| CCN(C(=O)Cn1nc(-c2cccc(C#N)c2)c2oc(C(F)F)cc2c1=O)c1ccc2c(c1)OC(F)(F)O2 [Example 187] | +++ (NAUC>70% of positive control) |
| Cc1nc2ccc(N(C)C(=O)Cn3nc(-c4cccc(Cl)c4)c4oc(C5CC5)cc4c3=O)cc2o1 [Example 218] | +++ (NAUC>70% of positive control) |
| CCN(C(=O)Cn1nc(-c2ccc(OC)c(S(=O)(=O)N3CCCC3)c2)c2[nH]cnc2c1=O)c1ccc2c(c1)OC(F)(F)O2 [Example 350] | + (NAUC<40% of positive control) |
| Cc1cc(C#N)cc(-c2nn(CC(=O)N(C)c3ccc4c(c3)OC(F)(F)O4)c(=O)c3ccoc23)c1 [Example 86] | +++ (NAUC>70% of positive control) |
| CCN(C(=O)Cn1nc(-c2cc(C#N)cc(OC)c2)c2occc2c1=O)c1ccc2c(c1)OC(F)(F)O2 [Example 110] | +++ (NAUC>70% of positive control) |
| CCN(C(=O)Cn1nc(-c2cc(C#N)cc(OC(F)(F)F)c2)c2[nH]cnc2c1=O)c1ccc2c(c1)OC(F)(F)O2 [Example 285] | +++ (NAUC>70% of positive control) |
| CCN(C(=O)Cn1nc(-c2ccc(Cl)c(Cl)c2)c2[nH]cnc2c1=O)c1ccc2c(c1)OC(F)(F)O2 [Example 322] | +++ (NAUC>70% of positive control) |
| CN(C(=O)Cn1nc(-c2cccc(OC(F)(F)F)c2)c2occc2c1=O)c1ccc2c(c1)OC(F)(F)O2 [Example 90] | ++ (NAUC 70-40% of positive control) |
| CCN(C(=O)Cn1nc(-c2cc(F)cc(OCC(F)(F)F)c2)c2[nH]cnc2c1=O)c1ccc2c(c1)OC(F)(F)O2 [Example 270] | ++ (NAUC 70-40% of positive control) |
| CCN(C(=O)Cn1nc(-c2cc(F)cc(C#N)c2)c2oc(C(=O)NC(C)(C)C)cc2c1=O)c1ccc2c(c1C)OC(F)(F)O2 [Example 140] | ++ (NAUC 70-40% of positive control) |
| O=C(Cn1nc(-c2cccc(Cl)c2)c2[nH]cnc2c1=O)N1CCCc2c1ccc1c2OC(F)(F)O1 [Example 374] | +++ (NAUC>70% of positive control) |

| Structure (SMILES) | Corr Activity (NAUC) |
| --- | --- |
| Cc1nc2ccc(N(C)C(=O)Cn3nc(-c4cccc(Cl)c4)c4sc(C)nc4c3=O)cc2o1 [Example 20] | +++ (NAUC>70% of positive control) |
| Cc1cc(-c2nn(CC(=O)N(c3ccc4c(c3)OC(F)(F)O4)C3CC3)c(=O)c3nc[nH]c23)cc(C(F)(F)F)c1 [Example 402] | ++ (NAUC 70-40% of positive control) |
| Cc1nc2ccc(N(C)C(=O)Cn3nc(-c4cccc(C#N)c4)c4oc(C5CCC5)cc4c3=O)cc2o1 [Example 232] | ++ (NAUC 70-40% of positive control) |
| CCN(C(=O)Cn1nc(-c2ccc3[nH]c4ccccc4c3c2)c2[nH]cnc2c1=O)c1ccc2c(c1)OC(F)(F)O2 [Example 295] | + (NAUC<40% of positive control) |
| CCN(C(=O)Cn1nc(-c2cccc(F)c2)c2cn[nH]c2c1=O)c1ccc2c(c1)OC(F)(F)O2 [Example 495] | ++ (NAUC 70-40% of positive control) |
| N#Cc1cc(-c2nn(CC(=O)N(c3ccc4c(c3)OC(F)(F)O4)C3CC3)c(=O)c3nc[nH]c23)cc(C(F)(F)F)c1 [Example 404] | ++ (NAUC 70-40% of positive control) |
| CCN(C(=O)Cn1nc(-c2cc(F)cc(C#N)c2)c2oc(C(F)F)cc2c1=O)c1ccc2c(c1C)OC(F)(F)O2 [Example 195] | ++ (NAUC 70-40% of positive control) |
| Cc1cc2c(cc1N(C)C(=O)Cn1nc(-c3cccc(C#N)c3)c3occc3c1=O)OC(F)(F)O2 [Example 44] | +++ (NAUC>70% of positive control) |
| CN(C(=O)Cn1nc(-c2cccc(C#N)c2)c2oc(C(=O)NC(C)(C)C)cc2c1=O)c1ccc2c(c1F)OC(F)(F)O2 [Example 148] | +++ (NAUC>70% of positive control) |
| COCCOc1cc(Cl)cc(-c2nn(CC(=O)N(c3ccc4c(c3)OC(F)(F)O4)C3CC3)c(=O)c3nc[nH]c23)c1 [Example 399] | ++ (NAUC 70-40% of positive control) |
| CN(C(=O)Cn1nc(-c2cccc(F)c2)c2occc2c1=O)c1ccc2c(c1F)OC(F)(F)O2 [Example 108] | +++ (NAUC>70% of positive control) |
| CCN(C(=O)Cn1nc(-c2cc(F)cc(C#N)c2)c2oc(C(F)F)cc2c1=O)c1ccc2c(c1)OC(F)(F)O2 [Example 191] | +++ (NAUC>70% of positive control) |
| CCN(C(=O)Cn1nc(-c2cc(C(F)(F)F)cc(C(F)(F)F)c2)c2[nH]cnc2c1=O)c1ccc2c(c1)OC(F)(F)O2 [Example 260] | + (NAUC<40% of positive control) |
| CCN(C(=O)Cn1nc(-c2ccc(-c3ccccc3)c(F)c2)c2[nH]cnc2c1=O)c1ccc2c(c1)OC(F)(F)O2 [Example 319] | + (NAUC<40% of positive control) |
| CN(C(=O)Cn1nc(-c2cc(C#N)cc(C(F)(F)F)c2)c2oc(C(=O)NC(C)(C)C)cc2c1=O)c1ccc2c(c1)OC(F)(F)O2 [Example 143] | ++ (NAUC 70-40% of positive control) |
| CN(C(=O)Cn1nc(-c2cccc(Cl)c2)c2oc(C(C)(C)O)cc2c1=O)c1ccc2c(c1)OC(F)(F)O2 [Example 184, 2-(7-(3-chlorophenyl)-2-(2-hydroxypropan-2-yl)-4-oxofuro[2,3-d]pyridazin-5(4H)-yl)-N-(2,2-difluorobenzo[d][1,3]dioxol-5-yl)-N-methylacetamide] | +++ (NAUC>70% of positive control) |
| CCN(C(=O)Cn1nc(-c2cc(O)cc(OC(F)(F)F)c2)c2[nH]cnc2c1=O)c1ccc2c(c1)OC(F)(F)O2 [Example 284] | + (NAUC<40% of positive control) |
| N#Cc1cc(F)cc(-c2nn(CC(=O)N(c3ccc4c(c3)OC(F)(F)O4)C3CC3)c(=O)c3nc[nH]c23)c1 [Example 368] | +++ (NAUC>70% of positive control) |
| N#Cc1cc(Cl)cc(-c2nn(CC(=O)N(c3ccc4c(c3)OC(F)(F)O4)C3CC3)c(=O)c3nc[nH]c23)c1 [Example 369] | +++ (NAUC>70% of positive control) |
